These results are taken from US20250090540A1, “PI3K-ALPHA INHIBITORS AND METHODS OF USE THEREOF” (Relay Therapeutics, Inc., priority 2021, published 2025).

The nature of experiment [1]: cells. To be noted: Homo sapiens, MCF-10A, read-out: MCF10A I50.
Experiment [2] has as its target H1047R PIK3CA enzyme (Homo sapiens, UniProt P42336, H1047R). As to the kind of experiment: ADP-Glo Biochemical PIK3CA Kinase Assay.

pIC50: −log10 of the molar value.

Sequence of H1047R PIK3CA enzyme (P42336 whole entry H1047R): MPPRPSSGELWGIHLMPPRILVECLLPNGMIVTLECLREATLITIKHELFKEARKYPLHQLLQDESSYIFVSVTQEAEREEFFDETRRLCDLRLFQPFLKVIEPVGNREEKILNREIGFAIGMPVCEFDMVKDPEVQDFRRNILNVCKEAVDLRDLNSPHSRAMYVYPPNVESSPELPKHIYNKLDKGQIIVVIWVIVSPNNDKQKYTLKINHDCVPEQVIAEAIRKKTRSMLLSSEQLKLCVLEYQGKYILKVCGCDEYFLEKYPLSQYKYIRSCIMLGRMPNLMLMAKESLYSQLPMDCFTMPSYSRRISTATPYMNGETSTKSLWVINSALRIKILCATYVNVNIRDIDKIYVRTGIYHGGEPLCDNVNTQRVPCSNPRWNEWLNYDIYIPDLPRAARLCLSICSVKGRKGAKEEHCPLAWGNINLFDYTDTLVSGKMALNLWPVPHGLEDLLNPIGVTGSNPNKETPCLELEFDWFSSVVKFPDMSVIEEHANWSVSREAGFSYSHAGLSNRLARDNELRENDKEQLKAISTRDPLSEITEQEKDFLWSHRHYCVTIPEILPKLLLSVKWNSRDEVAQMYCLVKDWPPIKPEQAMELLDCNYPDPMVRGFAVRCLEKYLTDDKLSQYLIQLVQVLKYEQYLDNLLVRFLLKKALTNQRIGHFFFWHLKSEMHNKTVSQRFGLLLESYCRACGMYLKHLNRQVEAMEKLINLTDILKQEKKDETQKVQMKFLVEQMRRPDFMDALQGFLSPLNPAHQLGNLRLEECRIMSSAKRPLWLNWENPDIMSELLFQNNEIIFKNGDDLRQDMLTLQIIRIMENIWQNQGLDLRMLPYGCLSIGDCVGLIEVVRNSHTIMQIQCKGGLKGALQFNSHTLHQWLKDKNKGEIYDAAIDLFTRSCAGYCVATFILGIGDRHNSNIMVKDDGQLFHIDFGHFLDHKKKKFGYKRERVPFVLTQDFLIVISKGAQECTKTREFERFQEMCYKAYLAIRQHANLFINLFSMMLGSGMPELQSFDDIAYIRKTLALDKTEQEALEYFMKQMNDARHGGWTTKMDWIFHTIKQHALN
Sequence of H1047R PIK3CA enzyme (P27986 whole entry partner): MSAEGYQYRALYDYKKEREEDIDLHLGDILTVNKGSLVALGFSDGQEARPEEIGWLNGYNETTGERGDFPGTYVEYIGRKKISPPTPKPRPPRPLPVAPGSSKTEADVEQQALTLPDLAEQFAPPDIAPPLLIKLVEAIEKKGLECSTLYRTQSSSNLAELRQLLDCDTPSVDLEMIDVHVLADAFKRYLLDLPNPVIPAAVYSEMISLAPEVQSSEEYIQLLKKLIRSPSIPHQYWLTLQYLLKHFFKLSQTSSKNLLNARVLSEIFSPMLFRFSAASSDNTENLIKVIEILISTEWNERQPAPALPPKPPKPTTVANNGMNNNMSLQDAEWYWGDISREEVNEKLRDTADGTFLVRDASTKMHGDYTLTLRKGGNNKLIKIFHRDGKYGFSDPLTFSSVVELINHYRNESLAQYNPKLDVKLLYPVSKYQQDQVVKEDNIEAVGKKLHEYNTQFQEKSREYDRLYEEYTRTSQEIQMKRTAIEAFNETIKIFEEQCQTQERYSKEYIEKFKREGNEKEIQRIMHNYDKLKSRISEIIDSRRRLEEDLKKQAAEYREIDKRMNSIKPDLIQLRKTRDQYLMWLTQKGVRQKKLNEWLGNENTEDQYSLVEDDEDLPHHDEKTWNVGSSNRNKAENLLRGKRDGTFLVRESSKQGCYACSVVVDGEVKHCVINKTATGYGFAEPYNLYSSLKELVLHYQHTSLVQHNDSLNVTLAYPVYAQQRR

Regarding `Cc1ccccc1Nc1ncc(C(=O)Nc2ccncc2)cc1NC(=O)c1cc(F)cc(C(F)(F)F)c1` [I-234], the pIC50 in experiment [1] was above 6.00; in experiment [2], 6.30 to 7.00.

As to `Cc1ccccc1Nc1ncc(C(=O)Nc2cccnc2)cc1NC(=O)c1cc(F)cc(C(F)(F)F)c1` [I-239], the pIC50 is 5.30 to 6.00 in experiment [1] and 6.30 to 7.00 in experiment [2].

Regarding `Cc1ccccc1Nc1ncc(C(=O)Nc2ccnnc2)cc1NC(=O)c1cc(F)cc(C(F)(F)F)c1` [I-240], the pIC50 in experiment [1] was above 6.00; in experiment [2], 6.30 to 7.00.

Take `O=C(NC1CS(=O)(=O)C1)c1cnc(N2CCOc3ccccc32)c(NC(=O)c2csc3ccccc23)c1` [I-245]: the pIC50 in experiment [1] is 5.00 to 5.30; in experiment [2], 6.30 to 7.00.

Turning to `Cc1ccccc1Nc1ncc(C(=O)NC2CCCS(=O)(=O)C2)cc1NC(=O)c1cc(F)cc(C(F)(F)F)c1` (stereo not shown) [I-246], the values for the pIC50 in experiment [1] and in experiment [2] were above 6.00 and 6.30 to 7.00, respectively.

Regarding `Cc1ccccc1Nc1ncc(C(=O)NC2CCS(=O)(=O)C2)cc1NC(=O)c1cc(F)cc(C(F)(F)F)c1` (stereo not shown) [I-247], the pIC50 was above 6.00 in experiment [1] and 6.30 to 7.00 in experiment [2].

`Cc1ccccc1Nc1ncc(C(=O)NC2CC(F)(F)C2)cc1NC(=O)c1csc2ccccc12` [I-248]: the pIC50 in experiment [1] was 5.30 to 6.00; in experiment [2], 6.30 to 7.00.

As for `CNC(=O)c1cnc(Nc2cccc(F)c2Cl)c(NC(=O)c2cc(F)cc(C(F)(F)F)c2)c1` [I-249], the pIC50 in experiment [1] was 5.30 to 6.00; in experiment [2], 6.30 to 7.00.

Regarding `O=C(NC1(c2cccnc2)CC1)c1cnc(N2CCOc3ccccc32)c(NC(=O)c2csc3ccccc23)c1` [I-256], the pIC50 in experiment [1] is 5.30 to 6.00; in experiment [2], 6.30 to 7.00.

Turning to `Cc1ccccc1Nc1ncc(C(=O)NC2CC3(COC3)C2)cc1NC(=O)c1cc(F)cc(C(F)(F)F)c1` [I-267], the pIC50 in experiment [1] is above 6.00; in experiment [2], 6.30 to 7.00.

Take `Cc1ccccc1Nc1ncc(C(=O)NC2CC(O)C2)cc1NC(=O)c1cc(F)cc(C(F)(F)F)c1` (stereo not shown) [I-274]: the values for the pIC50 in experiment [1] and in experiment [2] were 5.30 to 6.00 and 6.30 to 7.00, respectively.

As to `Cc1ccccc1Nc1ncc(C(=O)NC2CCC(O)C2)cc1NC(=O)c1cc(F)cc(C(F)(F)F)c1` (stereo not shown) [I-275], the pIC50 in experiment [1] is 5.30 to 6.00; in experiment [2], 6.30 to 7.00.

Regarding `Cc1ccccc1Nc1ncc(C(=O)NC2CCC(O)CC2)cc1NC(=O)c1cc(F)cc(C(F)(F)F)c1` (stereo not shown) [I-276], the results for the pIC50 in experiment [1] and in experiment [2] were 5.30 to 6.00 and 6.30 to 7.00, respectively.

Regarding `Cc1ccccc1Nc1cc(=O)n(Cc2ccccc2C#N)cc1NC(=O)c1csc2ccccc12` [I-279], the pIC50 in experiment [1] is 4.44 to 5.00; in experiment [2] it was 6.30 to 7.00.

Take `CNC(=O)c1cnc(Nc2ccc(F)cc2)c(NC(=O)c2cc(F)cc(C(F)(F)F)c2)c1` [I-285]: the pIC50 in experiment [1] was 4.44 to 5.00; in experiment [2] it was 6.00 to 6.30.

As to `CNC(=O)c1cnc(Nc2cccc(N)c2)c(NC(=O)c2cc(F)cc(C(F)(F)F)c2)c1` [I-286], the pIC50 is 4.44 to 5.00 in experiment [1] and 5.00 to 6.00 in experiment [2].

For the molecule `CNC(=O)c1cnc(Nc2cccc(Cl)c2)c(NC(=O)c2cc(F)cc(C(F)(F)F)c2)c1` [I-287], the values for the pIC50 in experiment [1] and in experiment [2] were 4.00 to 4.44 and 5.00 to 6.00, respectively.

In the case of `CCOc1ccccc1Nc1ncc(C(=O)NC)cc1NC(=O)c1cc(F)cc(C(F)(F)F)c1` [I-288], the pIC50 in experiment [1] was 4.00 to 4.44; in experiment [2], 4.00 to 5.00.

Consider `CNC(=O)c1cnc(Nc2cn(C)nc2C)c(NC(=O)c2cc(F)cc(C(F)(F)F)c2)c1` [I-289], for which the figures for the pIC50 in experiment [1] and in experiment [2] were 4.00 to 4.44 and 4.00 to 5.00, respectively.

For the molecule `CNC(=O)c1cnc(Nc2cccc(Cl)c2C)c(NC(=O)c2cc(F)cc(C(F)(F)F)c2)c1` [I-290], the pIC50 in experiment [1] was 4.00 to 4.44; in experiment [2], 5.00 to 6.00.

In the case of `CNC(=O)c1cnc(Nc2ncco2)c(NC(=O)c2cc(F)cc(C(F)(F)F)c2)c1` [I-291], the pIC50 in experiment [1] was 4.00 to 4.44; in experiment [2], 4.00 to 5.00.

Take `CNC(=O)c1cnc(Nc2cccc(C(F)(F)F)c2)c(NC(=O)c2cc(F)cc(C(F)(F)F)c2)c1` [I-292]: the pIC50 in experiment [1] was 4.44 to 5.00; in experiment [2], 5.00 to 6.00.

As to `CNC(=O)c1cnc(Nc2ccccc2Cl)c(NC(=O)c2cc(F)cc(C(F)(F)F)c2)c1` [I-293], the values for the pIC50 in experiment [1] and in experiment [2] were 5.30 to 6.00 and 6.30 to 7.00, respectively.

Turning to `CNC(=O)c1cnc(Nc2cccc(C)c2Cl)c(NC(=O)c2cc(F)cc(C(F)(F)F)c2)c1` [I-294], the pIC50 in experiment [1] was 4.00 to 4.44; in experiment [2] it was 5.00 to 6.00.

With `CNC(=O)c1cnc(Nc2ccc(C#N)cc2)c(NC(=O)c2cc(F)cc(C(F)(F)F)c2)c1` [I-295], the pIC50 is 4.00 to 4.44 in experiment [1] and 5.00 to 6.00 in experiment [2].

`CNC(=O)c1cnc(Nc2cccc(F)c2F)c(NC(=O)c2cc(F)cc(C(F)(F)F)c2)c1` [I-296]: the pIC50 was 5.00 to 5.30 in experiment [1] and 6.30 to 7.00 in experiment [2].

On to `CNC(=O)c1cnc(Nc2cccc(C(C)(C)C)c2)c(NC(=O)c2cc(F)cc(C(F)(F)F)c2)c1` [I-297], for which the figures for the pIC50 in experiment [1] and in experiment [2] were 4.00 to 4.44 and 5.00 to 6.00, respectively.

For the molecule `CNC(=O)c1cnc(Nc2ccccc2C(C)C)c(NC(=O)c2cc(F)cc(C(F)(F)F)c2)c1` [I-298], the pIC50 is 4.00 to 4.44 in experiment [1] and 5.00 to 6.00 in experiment [2].

Regarding `CNC(=O)c1cnc(Nc2nccs2)c(NC(=O)c2cc(F)cc(C(F)(F)F)c2)c1` [I-299], the pIC50 was 4.00 to 4.44 in experiment [1] and 4.00 to 5.00 in experiment [2].

On to `CNC(=O)c1cnc(Nc2ccccc2F)c(NC(=O)c2cc(F)cc(C(F)(F)F)c2)c1` [I-300], for which the pIC50 in experiment [1] is 4.00 to 4.44; in experiment [2], 5.00 to 6.00.

Take `CNC(=O)c1cnc(Nc2nc(C)c(C)s2)c(NC(=O)c2cc(F)cc(C(F)(F)F)c2)c1` [I-301]: the pIC50 in experiment [1] was 4.44 to 5.00; in experiment [2], 6.00 to 6.30.

Regarding `CNC(=O)c1cnc(Nc2cccc(F)c2C)c(NC(=O)c2cc(F)cc(C(F)(F)F)c2)c1` [I-302], the pIC50 was 5.00 to 5.30 in experiment [1] and 6.00 to 6.30 in experiment [2].

In the case of `CNC(=O)c1cnc(Nc2cccc(F)c2OC)c(NC(=O)c2cc(F)cc(C(F)(F)F)c2)c1` [I-303], the figures for the pIC50 in experiment [1] and in experiment [2] were 4.00 to 4.44 and 5.00 to 6.00, respectively.

Regarding `CNC(=O)c1cnc(Nc2nc(C)cs2)c(NC(=O)c2cc(F)cc(C(F)(F)F)c2)c1` [I-304], the results for the pIC50 in experiment [1] and in experiment [2] were 4.00 to 4.44 and 5.00 to 6.00, respectively.

In the case of `CNC(=O)c1cnc(Nc2nn(C)cc2Br)c(NC(=O)c2cc(F)cc(C(F)(F)F)c2)c1` [I-305], the pIC50 was 4.00 to 4.44 in experiment [1] and 4.00 to 5.00 in experiment [2].

Turning to `Cc1ccccc1Nc1ncc(CNS(=O)(=O)c2ccccc2)cc1NC(=O)c1cc(F)cc(C(F)(F)F)c1` [I-307], the pIC50 is 5.30 to 6.00 in experiment [1] and 6.30 to 7.00 in experiment [2].

With `Cc1ccccc1Nc1cc(=O)[nH]cc1NC(=O)c1csc2ccccc12` [I-308], the pIC50 in experiment [1] was 4.00 to 4.44; in experiment [2], 5.00 to 6.00.

Consider `COC(=O)Cn1cc(NC(=O)c2csc3ccccc23)c(Nc2ccccc2C)cc1=O` [I-309], for which the values for the pIC50 in experiment [1] and in experiment [2] were 4.00 to 4.44 and 5.00 to 6.00, respectively.

Take `Cc1ccccc1Nc1cc(=O)n(CC(=O)O)cc1NC(=O)c1csc2ccccc12` [I-310]: the values for the pIC50 in experiment [1] and in experiment [2] were 4.00 to 4.44 and 4.00 to 5.00, respectively.

In the case of `Cc1ccccc1Nc1ncc(C(=O)NC2C[S+]([O-])C2)cc1NC(=O)c1csc2ccccc12` (stereo not shown) [I-311], the pIC50 in experiment [1] was 5.30 to 6.00; in experiment [2], at least 7.00.

As to `CNC(=O)c1cnc(Nc2ccccc2C)c(NC(=O)c2cc(F)cc(OC(F)(F)F)c2)c1` [I-312], the figures for the pIC50 in experiment [1] and in experiment [2] were 4.00 to 4.44 and 5.00 to 6.00, respectively.
